The text below walks through data of patent US8518945B2, “Pyrrolopyrazine kinase inhibitors” (Hoffmann-La Roche Inc., priority 2010, dated 2013).

In data set [1] the target is T1, h-jak3(810-1124) (JAK3: Recombinant human kinase domain) (Homo sapiens, UniProt P52333).
T1 construct: jak3(810- 1124)-sf9-c; made in house; host or cells: Sf9
As to the kind of experiment: Determination of IC50 of Janus Kinase (JAK) inhibition: JAK3 radioactive end-point 33P-ATP kinase assay. The format is biochemical. The note with it: no additive; ATP 1.5 uM, peptide 50 uM, 20 minutes, room temperature; read-out: Ic50 h-jak3(810-1124)-sf9-c: no additive.

T1 sequence (P52333 810-1124): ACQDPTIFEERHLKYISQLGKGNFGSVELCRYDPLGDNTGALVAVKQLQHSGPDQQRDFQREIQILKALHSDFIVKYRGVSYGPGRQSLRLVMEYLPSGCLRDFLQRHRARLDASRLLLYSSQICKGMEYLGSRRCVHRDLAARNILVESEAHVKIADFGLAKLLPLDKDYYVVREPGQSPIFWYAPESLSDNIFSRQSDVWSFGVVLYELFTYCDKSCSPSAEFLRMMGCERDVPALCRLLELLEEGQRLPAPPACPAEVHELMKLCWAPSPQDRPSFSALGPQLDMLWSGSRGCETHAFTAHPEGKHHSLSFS

Take `CC(C)[C@@H](NC(=O)c1c[nH]c2ncc(C3CC3)nc12)C(=O)N1CCOCC1` [Example 27, 2-Cyclopropyl-5H-pyrrolo[2,3-b]pyrazine-7-carboxylic acid [(R)-2-methyl-1-(morpholine-4-carbonyl)-propyl]-amide]: the melting point (in general, the temperature, or range, at which the solid turns liquid) is 154 to 156 °C.

`Cc1nc(-c2cnc3[nH]cc(C(=O)N[C@@H](C(=O)N4CC(C#N)C4)C(C)(C)C)c3n2)cn1-c1cccc(F)c1` [Example 137, 2-[1-(3-Fluorophenyl)-2-methyl-1H-imidazol-4-yl]-5H-pyrrolo[2,3-b]pyrazine-7-carboxylic acid [(R)-1-(3-cyano-azetidine-1-carbonyl)-2,2-dimethyl-propyl]-amide] registered a melting point of 171 to 176 °C.

`CC(C)(C)[C@@H](NC(=O)c1c[nH]c2ncc(C3CC3)nc12)C(=O)N1CCCC1` [Example 1, 2-Cyclopropyl-5H-pyrrolo[2,3-b]pyrazine-7-carboxylic acid [(R)-2,2-dimethyl-1-(pyrrolidine-1-carbonyl)-propyl]-amide] gave a melting point of 201 to 203 °C.

Compound `Cc1nc(-c2cnc3[nH]cc(C(=O)N[C@@H](C(=O)N4CC(C#N)C4)C(C)(C)C)c3n2)cn1-c1cc(F)cc(F)c1` [Example 136, 2-[1-(3,5-Difluoro-phenyl)-2-methyl-1H-imidazol-4-yl]-5H-pyrrolo[2,3-b]pyrazine-7-carboxylic acid [(R)-1-(3-cyano-azetidine-1-carbonyl)-2,2-dimethyl-propyl]-amide] had a melting point of 187 to 190 °C.

Turning to `Cc1nc(-c2cnc3[nH]cc(C(=O)N[C@@H](C(=O)N4CC(C#N)C4)C4CC4)c3n2)cn1-c1ccccc1`, the melting point was 175 to 179 °C.

As to `CN1CCN(c2ccc(-c3cnc4[nH]cc(C(=O)N[C@@H](C(=O)N5CC(C#N)C5)C5CC5)c4n3)cc2)CC1` [Example 144, 2-[4-(4-Methyl-piperazin-1-yl)-phenyl]-5H-pyrrolo[2,3-b]pyrazine-7-carboxylic acid [(R)-2-(3-cyano-azetidin-1-yl)-1-cyclopropyl-2-oxo-ethyl]-amide], the melting point lay within 178 to 185 °C.

`CN(C)c1ccc(-c2cnc3[nH]cc(C(=O)N[C@@H](C(=O)N4CC(C#N)C4)C4CC4)c3n2)cc1` [Example 146, 2-(4-Dimethylamino-phenyl)-5H-pyrrolo[2,3-b]pyrazine-7-carboxylic acid [(R)-2-(3-cyano-azetidin-1-yl)-1-cyclopropyl-2-oxo-ethyl]-amide] returned a melting point of 175 to 180 °C.

In the case of `CC(C)(C)[C@@H](NC(=O)c1c[nH]c2ncc(C3CC3)nc12)C(=O)N1CCC(C#N)CC1` [Example 11, 2-Cyclopropyl-5H-pyrrolo[2,3-b]pyrazine-7-carboxylic acid [(R)-1-(4-cyano-piperidine-1-carbonyl)-2,2-dimethyl-propyl]-amide], the melting point lay in the range of 249 to 251 °C.

`CCn1cc(-c2cnc3[nH]cc(C(=O)N[C@@H](C(=O)N4CCCC4)C4CC4)c3n2)cn1` [Example 4, 2-(1-Ethyl-1H-pyrazol-4-yl)-5H-pyrrolo[2,3-b]pyrazine-7-carboxylic acid ((R)-1-cyclopropyl-2-oxo-2-pyrrolidin-1-yl-ethyl)-amide] showed a melting point of 210 to 212 °C.

`O=C(N[C@@H](C(=O)N1CCCC1)C1CC1)c1c[nH]c2ncc(C3CC3)nc12` [Example 25, 2-Cyclopropyl-5H-pyrrolo[2,3-b]pyrazine-7-carboxylic acid ((R)-1-cyclopropyl-2-oxo-2-pyrrolidin-1-yl-ethyl)-amide] displayed a melting point of 254 to 256 °C.

On to `CCn1cc(-c2cnc3[nH]cc(C(=O)N[C@@H](C(=O)N4CCC(C#N)CC4)C(C)(C)C)c3n2)cn1` [Example I-56, 2-(1-Ethyl-1H-pyrazol-4-yl)-5H-pyrrolo[2,3-b]pyrazine-7-carboxylic acid [(R)-1-(4-cyano-piperidine-1-carbonyl)-2,2-dimethyl-propyl]-amide], for which, in data set [1], the IC50 (commonly the concentration that inhibits the measured activity by half) was determined as 0.77 nM.

Take `Cn1cc(-c2cnc3[nH]cc(C(=O)N[C@@H](C(=O)N4CC(C)(C#N)C4)C4CC4)c3n2)cn1` [Example I-142, 2-(1-Methyl-1H-pyrazol-4-yl)-5H-pyrrolo[2,3-b]pyrazine-7-carboxylic acid [(R)-2-(3-cyano-3-methyl-azetidin-1-yl)-1-cyclopropyl-2-oxo-ethyl]-amide]: in data set [1], the 50% inhibitory concentration (IC50) turned out to be 0.47 nM.

`N#CC1CN(C(=O)[C@H](NC(=O)c2c[nH]c3ncc(C4CC4)nc23)C2CC2)C1` [Example I-68, 2-Cyclopropyl-5H-pyrrolo[2,3-b]pyrazine-7-carboxylic acid [(R)-2-(3-cyano-azetidin-1-yl)-1-cyclopropyl-2-oxo-ethyl]-amide]: the IC50 in data set [1] was found to be 0.58 nM.

`N#CC1CN(C(=O)[C@@H](NC(=O)c2c[nH]c3ncc(C4CC4)nc23)C2CCOCC2)C1` [Example I-137, 2-Cyclopropyl-5H-pyrrolo[2,3-b]pyrazine-7-carboxylic acid [(S)-2-(3-cyano-azetidin-1-yl)-2-oxo-1-(tetrahydro-pyran-4-yl)-ethyl]-amide]: in data set [1], the IC50 was 539 nM.

Take `O=C(NC(C(=O)N1CCCC1)C(F)(F)F)c1c[nH]c2ncc(C3CC3)nc12` (stereo not drawn) [Example I-19, 2-Cyclopropyl-5H-pyrrolo[2,3-b]pyrazine-7-carboxylic acid [2,2,2-trifluoro-1-(pyrrolidine-1-carbonyl)-ethyl]-amide]: the IC50 in data set [1] worked out at 27 nM.

Consider `CC(C)[C@@H](NC(=O)c1c[nH]c2ncc(C3CC3)nc12)C(=O)N1CCOCC1` [Example I-8, 2-Cyclopropyl-5H-pyrrolo[2,3-b]pyrazine-7-carboxylic acid [(R)-2-methyl-1-(morpholine-4-carbonyl)-propyl]-amide], for which the IC50 in data set [1] came out at 12.3 nM.

In the case of `Cn1cc(-c2cnc3[nH]cc(C(=O)N[C@@H](C(=O)N4CCC(C#N)CC4)C(C)(C)C)c3n2)cn1` [Example I-55, 2-(1-Methyl-1H-pyrazol-4-yl)-5H-pyrrolo[2,3-b]pyrazine-7-carboxylic acid [(R)-1-(4-cyano-piperidine-1-carbonyl)-2,2-dimethyl-propyl]-amide], the IC50 in data set [1] turned out to be 1.52 nM.

On to `CC(C)(C)[C@@H](NC(=O)c1c[nH]c2ncc(C3CC3)nc12)C(=O)N1CCc2ncccc2C1` [Example I-135, 2-Cyclopropyl-5H-pyrrolo[2,3-b]pyrazine-7-carboxylic acid [(R)-1-(7,8-dihydro-5H-[1,6]naphthyridine-6-carbonyl)-2,2-dimethyl-propyl]-amide], for which, in data set [1], the concentration for half-maximal inhibition (IC50) amounted to 6.11 nM.

For `CCn1cc(-c2cnc3[nH]cc(C(=O)N[C@@H](C(=O)N4CCCC4)C4CC4)c3n2)cn1` [Example I-27, 2-(1-Ethyl-1H-pyrazol-4-yl)-5H-pyrrolo[2,3-b]pyrazine-7-carboxylic acid ((R)-1-cyclopropyl-2-oxo-2-pyrrolidin-1-yl-ethyl)-amide], the half-inhibitory concentration (IC50) in data set [1] was determined as 1.94 nM.

With `C[C@@H](NC(=O)c1c[nH]c2ncc(-c3cccc(N4CCCC4)c3)nc12)C(=O)N1CC(C#N)C1` [Example I-109, 2-(3-Pyrrolidin-1-yl-phenyl)-5H-pyrrolo[2,3-b]pyrazine-7-carboxylic acid [(R)-2-(3-cyano-azetidin-1-yl)-1-methyl-2-oxo-ethyl]-amide], in data set [1], the 50% inhibitory concentration (IC50) was determined as 0.61 nM.

Turning to `O=C(N[C@@H](C(=O)N1C[C@@H]2[C@@H](CO)[C@@H]2C1)C1CC1)c1c[nH]c2ncc(C3CC3)nc12` [Example I-86, 2-Cyclopropyl-5H-pyrrolo[2,3-b]pyrazine-7-carboxylic acid [(R)-1-cyclopropyl-2-((1S,5R,6R)-6-hydroxymethyl-3-aza-bicyclo[3.1.0]hex-3-yl)-2-oxo-ethyl]-amide], the IC50 in data set [1] was 4.02 nM.

As to `C[C@@H](NC(=O)c1c[nH]c2ncc(C3CC3)nc12)C(=O)N1CCC(F)(F)C1` [Example I-21, 2-Cyclopropyl-5H-pyrrolo[2,3-b]pyrazine-7-carboxylic acid [(R)-2-(3,3-difluoro-pyrrolidin-1-yl)-1-methyl-2-oxo-ethyl]-amide], in data set [1], the IC50 stood at 14.9 nM.

With `C[C@@H](NC(=O)c1c[nH]c2ncc(-c3cccc(N4C[C@H]5C[C@H]5C4)c3)nc12)C(=O)N1CC(C#N)C1` [Example I-126, 2-[(1S,5R)-3-(3-Aza-bicyclo[3.1.0]hex-3-yl)-phenyl]-5H-pyrrolo[2,3-b]pyrazine-7-carboxylic acid [(R)-2-(3-cyano-azetidin-1-yl)-1-methyl-2-oxo-ethyl]-amide], in data set [1], the 50% inhibitory concentration (IC50) stood at 0.57 nM.

As for `CC(C)(C)[C@@H](NC(=O)c1c[nH]c2ncc(-c3ccccn3)nc12)C(=O)N1CCC(C#N)CC1` [Example I-115, 2-Pyridin-2-yl-5H-pyrrolo[2,3-b]pyrazine-7-carboxylic acid [(R)-1-(4-cyano-piperidine-1-carbonyl)-2,2-dimethyl-propyl]-amide], the IC50 in data set [1] was 2.92 nM.

Consider `C[C@@H](NC(=O)c1c[nH]c2ncc(-c3cc(-n4cccn4)ccn3)nc12)C(=O)N1CC(C#N)C1` [Example I-152, 2-(4-Pyrazol-1-yl-pyridin-2-yl)-5H-pyrrolo[2,3-b]pyrazine-7-carboxylic acid [(R)-2-(3-cyano-azetidin-1-yl)-1-methyl-2-oxo-ethyl]-amide], for which the IC50 in data set [1] was 9.52 nM.

With `N#CC1CN(C(=O)[C@H](NC(=O)c2c[nH]c3ncc(-c4cn(-c5cc(F)cc(F)c5F)cn4)nc23)C2CC2)C1` [Example I-133, 2-[1-(2,3,5-Trifluoro-phenyl)-1H-imidazol-4-yl]-5H-pyrrolo[2,3-b]pyrazine-7-carboxylic acid [(R)-2-(3-cyano-azetidin-1-yl)-1-cyclopropyl-2-oxo-ethyl]-amide], the IC50 in data set [1] amounted to 1.67 nM.

Turning to `Cn1cnc(-c2cnc3[nH]cc(C(=O)N[C@@H](C(=O)N4CCC(C#N)CC4)C(C)(C)C)c3n2)c1` [Example I-77, 2-(1-Methyl-1H-imidazol-4-yl)-5H-pyrrolo[2,3-b]pyrazine-7-carboxylic acid [(R)-1-(4-cyano-piperidine-1-carbonyl)-2,2-dimethyl-propyl]-amide], the half-maximal inhibitory concentration (IC50) in data set [1] is at most 0.32 nM.
